Literature values, collected in US20050131071A1, “Orodispersible pharmaceutical composition of agomelatine” (priority 2003, published 2005).

Conditions: humans; oral route in relation to the parenteral route

- bioavailability by the oral route: very low
Structure (SMILES): COc1ccc2cccc(CCNC(C)=O)c2c1 [agomelatine, N-[2-(7-methoxy-1-naphthyl)ethyl]acetamide]
